In patent US20110028719A1, “SCREENING METHODS FOR AMYLOID BETA MODULATORS” (priority 2006, published 2011):

Biological target: immobilized Aβ fibrils (Homo sapiens, UniProt P05067)
Assay: FAC-MS assay of free Aβ monomer (indicator) binding to immobilized Aβ fibrils in the presence of test compounds
Conditions: FAC-MS screen; shift of free Aβ monomer breakthrough on immobilized Aβ fibrils in presence of compound; scale not given

Sequence of immobilized Aβ fibrils (P05067 672-713 limits assumed): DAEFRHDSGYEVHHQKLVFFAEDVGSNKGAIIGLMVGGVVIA

SMILES	Aβ Shift
CC1CCC(C(C)C)C(OCC(O)CN2CCOCC2)C1 (stereo not shown)	1
CCCC1CCC(c2ccc(C(C)=O)cc2)CC1C (stereo not shown)	1
CC1CCN(CC(=O)OC2CC(C)CCC2C(C)C)CC1 (stereo not shown)	1
CC1CCCC(NS(=O)(=O)c2cccs2)C1C (stereo not shown)	1
CC(C)(C)C1CC(C(=O)O)CC(C(C)(C)C)C1 (stereo not shown)	1
CC(C)=CCCC12CCC(CO)(CO1)C(C)C2 (stereo not shown)	1
CC(C)C1CCC(C)C(OC(=O)C2C3CCCCC32)C1 (stereo not shown)	1
CC(=O)OCC12COC(C)(CC1C)CC2C (stereo not shown)	1
CCC(=O)OC1CCC(C)CC1C(C)(C)C(C)C (stereo not shown)	1
O=C(O)C1(O)CC(O)C(O)C(O)C1 (stereo not shown)	1
CC1CCC(C(C)C)C(OC(=O)CCc2ccccc2)C1 (stereo not shown)	1
CC1C2CC3(C)CC1(C)CC(C1(C)CC(=O)O1)(C2)C3 (stereo not shown)	1
C/C(=N\O)C(=O)OC1CC(C)CCC1C(C)C (stereo not shown)	1
CC12CC3CC(C)(C1)CC(CNC(=O)c1ccccc1)(C3)C2	1
CC12CC3(C)CC(C)(C1)CC(C(N)=O)(C2)C3	1
COC(=O)C12CC3CC(C)(CC(C)(C3)C1)C2	1
CC12CC3CC(C)(C1)CC(C(=O)NO)(C3)C2	1
CC12CC3CC(CO)(C1)CC(c1ccccc1)(C3)C2 (stereo not shown)	1
CC12CC3CC(C)(C1)CC(C(N)=O)(C3)C2	1
CC12CC3CC(C)(C1)CC(C(=O)NNC(N)=O)(C3)C2	1
COC(=O)C12CC3(C)CC(C)(CC(C)(C3)C1)C2	1
CN(C)C(=O)C12CC3(C)CC(C)(CC(C)(C3)C1)C2	1
CC(=O)NC12CC3(C)CC(C)(C1)CC(NC(C)=O)(C3)C2	1

SMILES	Aβ Shift
CC(=O)NC12CC3CC(C)(C1)CC(NC(C)=O)(C3)C2	1
CCC12CC3CC(O)(C1)CC(C(=O)O)(C3)C2 (stereo not shown)	1
CC12CC3CC(C)(C1)CC(C(=O)CCC(=O)O)(C3)C2	1
CC(=O)NC12CC3(C)CC(C)(CC(O)(C3)C1)C2	1
CC12CC3CC(O)(C1)CC(C(=O)O)(C3)C2 (stereo not shown)	1
CCN1CCC(NC2CCCC(C)C2C)CC1 (stereo not shown)	1
CC(CCc1ccc(O)cc1)NC1CCCC(C)C1C (stereo not shown)	1
CC12CC3CC(C)(C1)CC(C(=O)Nc1nnn[nH]1)(C3)C2	1
Cc1ccc(C(C)(C)CC(C)NC2CCCC(C)C2C)o1 (stereo not shown)	1
Cc1cc(NC(=O)C23CC4CC(C)(CC(C)(C4)C2)C3)no1	1
CC(=O)O[C@H]1[C@@H](OC(=O)CC(C)C)[C@H](OC(=O)CC(C)C)[C@@H](OC(=O)CC(C)C)[C@H](OC(=O)CC(C)C)[C@H]1OC(=O)CC(C)C	3
CC1CCCC(C)C1CO (stereo not shown)	1
CC12CC3(C)CC(C)(C1)CC(CC(=O)O)(C2)C3	1
C=CC1CCC(O)C(O)C1 (stereo not shown)	1
Cl.NC1C2CC3C1C3C2Cl (stereo not shown)	1
CC(=O)NC1CC(Cl)CCC1C (stereo not shown)	1
CC(=O)C1C2CC3C(C2Cl)C31 (stereo not shown)	1
O=C(O)C1C2CC3C(C2Cl)C31 (stereo not shown)	1
CC1CCC(C(C)(C)C)C(O)C1 (stereo not shown)	1
CC12CC3CC(O)(C1)CC(O)(C3)C2	1
CC12CC3CC(C)(C1)CC(C(Cl)C(=O)O)(C3)C2 (stereo not shown)	1
CC1CCC(C(C)C)C(OC(=O)NN)C1 (stereo not shown)	1
CC1CCC(C(C)C)C(OC(=O)C(O)O)C1 (stereo not shown)	1

SMILES	Aβ Shift
COC(=O)[C@@H]1C[C@H](O)C[C@H](C(=O)OC)C1	1
CC1CCC(C(C)CS)CC1S (stereo not shown)	1
CC(O)C#CC1(O)C(C)CCCC1(C)C (stereo not shown)	1
CC1CC(C)C(C(=O)c2ccccc2)C(O)C1 (stereo not shown)	1
OCC1(CO)CCCC(CO)(CO)C1O	1
COC1CCC(C(C)=O)C(O)C1 (stereo not shown)	1
CC12CC3CC(C)(C1)CC(CC(=O)NNC(N)=O)(C3)C2	2
CCN(CC)CC12CC3CC(C)(CC(C)(C3)C1)C2	2
CC12CC3(C)CC(C)(C1)CC(C(=O)O)(C2)C3	2
CC12CC3(C)CC(C)(C1)CC(C(=O)NCCO)(C2)C3	2
CC12CC3CC(C)(C1)CC(c1ccc(O)cc1)(C3)C2	2
Cc1ccc(C(=O)OC2CC(C)CCC2C(C)C)cc1C (stereo not shown)	2
Cc1cccc(NC(=O)C23CC4CC(C)(CC(C)(C4)C2)C3)c1	2
CC12CC3(C)CC(C)(C1)CC(C(=O)NC(C)(C)C)(C2)C3	2
CC1CCC(C(C)C)C(OC(=O)c2ccncc2)C1 (stereo not shown)	1
CC12CC3(C)CC(N)(C1)CC(O)(C2)C3	1
CN(C)CCNC(=O)C12CC3CC(C)(CC(C)(C3)C1)C2	1
CC12CC3(C)CC(C)(C1)CC(N)(C2)C3	1
CC12CC3(C)CC(C(=O)O)(C1)CC(C(=O)O)(C2)C3	1
CCC12CC3CC(O)(CC(O)(C3)C1)C2	1
CC12CC3(C)CC(CC(=O)O)(C1)CC(CC(=O)O)(C2)C3	1
CN(C)C(=S)NC(=O)C12CC3CC(C)(CC(C)(C3)C1)C2	1
CC1CCC(C(C)C)C(OCC(O)CNC(C)C)C1 (stereo not shown)	1

SMILES	Aβ Shift
CC1CCC(C(C)C)C(OCC(O)CN2CCCCC2)C1 (stereo not shown)	1
CC1CC2(C)CC(C)C1(CO)CO2 (stereo not shown)	1
O=C(O)C1CC(C(=O)O)C(C(=O)O)CC1C(=O)O (stereo not shown)	1
CC12CC3CC(C)(C1)CC(CN1CCOCC1)(C3)C2	1
CC1CCC(COC(=O)CN2CCCCC2)C(C)C1 (stereo not shown)	1
CC1CC(OC(=O)CN2CCCCC2)CC(C)(C)C1 (stereo not shown)	1
C=CC1CCC(O)C(N(C)C(=S)Nc2ccccc2)C1 (stereo not shown)	1
CC(NC(=O)C12CC3(C)CC(C)(CC(C)(C3)C1)C2)C(=O)O (stereo not shown)	2
CN(C)CCOC(=O)C12CC3(C)CC(C)(CC(C)(C3)C1)C2	2
CC1CCC(C(C)C)C(OC(=O)c2ccco2)C1 (stereo not shown)	2
O=C(O)C12CC3CC(C(=O)O)(C1)CC(C(=O)O)(C3)C2	2
CC1CCCC(N/C=C2\C(=O)Nc3ccccc32)C1C (stereo not shown)	2
CC1CCC(COC(=O)C[N+]2(C)CCCCC2)C(C)C1 (stereo not shown)	2
CC1CCC(C(C)C)C(OCC[N+](C)(C)C)C1 (stereo not shown)	2
CC1CCC(C(C)C)C(OCCC[N+](C)(C)C)C1 (stereo not shown)	2
CC[N+](CC)(CC)CCCOC1CC(C)CCC1C(C)C (stereo not shown)	2
CC1CCC(C(C)C)C(OC(=O)NC(=O)C(F)(F)F)C1 (stereo not shown)	2
CC1CCCC(N2CNC(=S)NC2)C1C (stereo not shown)	2
CC1CCCC(N2CNc3nc4ccccc4n3C2)C1C (stereo not shown)	2
O=C(O)C1C2CC3C(OC(=O)C31)C2Cl (stereo not shown)	2
CC1CC(NN(C)C)C(C#N)(C#N)C(C)C1(C#N)C#N (stereo not shown)	2
CC12CC3CC(C)(C1)CC(CN)(C3)C2	2
CC12CC3CC(C)(C1)CC(N)(C3)C2	2

SMILES	Aβ Shift
CC1CCCC(NC(=O)c2n[nH]c(=O)c3ccccc23)C1C (stereo not shown)	2
CC1CC(NS(=O)(=O)c2cccs2)CC(C)(C)C1 (stereo not shown)	2
CC1CCCC(NC(=O)Cc2cn(C)c3ccccc23)C1C (stereo not shown)	2
CC12CC3(C)CC(N)(C1)CC(C(=O)O)(C2)C3	2
CC1CCCC(NC(=O)c2cc3sccc3n2C)C1C (stereo not shown)	2
CC1CCCC(NC(=O)c2csc3c2CCCC3)C1C (stereo not shown)	2
CC1CCCC(NC(=O)Nc2cccs2)C1C (stereo not shown)	2
CC1CCCC(NC(=O)Cn2cc3c(n2)CCCC3)C1C (stereo not shown)	1
CC1CCCC(NC(=O)c2ccc3snnc3c2)C1C (stereo not shown)	1
Cc1nn(CC(=O)NC2CCCC(C)C2C)c2ccccc12 (stereo not shown)	1
CC(=O)c1[nH]c(C)c(C(=O)NC2CCCC(C)C2C)c1C (stereo not shown)	1
CC1CCCC(n2c(=S)[nH]c3ccccc3c2=O)C1C (stereo not shown)	1
CC1CCCC(n2cnc3cc(C(=O)O)ccc32)C1C (stereo not shown)	1
CC1CCCC(NC(=O)c2cc3c(s2)CSC3)C1C (stereo not shown)	1
Cc1cc(C(=O)NC2CCCC(C)C2C)c2ccccc2n1 (stereo not shown)	1
CC1CCCC(NC(=O)c2ccccc2C(=O)O)C1C (stereo not shown)	2
CCC1CC2(C(=O)NCc3ccco3)CC3(C)CC3(C1)C2 (stereo not shown)	1
Nc1ncnc2c1ncn2C1CCC(CO)C(O)C1 (stereo not shown)	1
COC(=O)C1(C)CC2(C)CC(C)(C1)C(=O)N(C)C2=O (stereo not shown)	1
CC1CCC(C(C)C)C(OC(=O)CSC#N)C1 (stereo not shown)	1
